Experimental data published in ChEMBL document CHEMBL4028802, “DILIrank: the largest reference drug list ranked by the risk for developing drug-induced liver injury in humans” (Drug Discov Today, 2016).

What was measured:
[1] = organism: Homo sapiens; test: Liver toxicity in human assessed as induction of drug-induced liver injury by measuring severity class index
[2] = organism: Homo sapiens; test: Liver toxicity in human assessed as induction of drug-induced liver injury by measuring verified drug-induced liver injury concern status
Throughout, for DILI severity class: key of the grades not given here.

Compound | DILI_severity_class [1] | DILI_Concern [2]
CC(=O)Oc1cc2c(s1)CCN(C(C(=O)C1CC1)c1ccccc1F)C2.Cl (stereo not given) [PRASUGREL HYDROCHLORIDE] | 0 | Less-Dili-Concern
CC[C@H](C)C(=O)O[C@H]1C[C@H](O)C=C2C=C[C@H](C)[C@H](CC[C@@H](O)C[C@@H](O)CC(=O)O)[C@H]21 [PRAVASTATIN] | 3 | Less-Dili-Concern
COc1cc2nc(N3CCN(C(=O)c4ccco4)CC3)nc(N)c2cc1OC [PRAZOSIN] | 3 | Ambiguous-Dili-Concern
C[C@]12C=CC(=O)C=C1CC[C@@H]1[C@@H]2[C@@H](O)C[C@@]2(C)[C@H]1CC[C@]2(O)C(=O)CO [PREDNISOLONE] | 3 | Less-Dili-Concern
C[C@]12C=CC(=O)C=C1CC[C@@H]1[C@@H]2C(=O)C[C@@]2(C)[C@H]1CC[C@]2(O)C(=O)CO [PREDNISONE] | 3 | Less-Dili-Concern
COc1cc(NC(C)CCCN)c2ncccc2c1 (stereo not given) [PRIMAQUINE] | 0 | No-Dili-Concern
CCC1(c2ccccc2)C(=O)NCNC1=O [PRIMIDONE] | 0 | No-Dili-Concern
CCCN(CCC)S(=O)(=O)c1ccc(C(=O)O)cc1 [PROBENECID] | 6 | Ambiguous-Dili-Concern
CCN(CC)CCNC(=O)c1ccc(N)cc1 [PROCAINAMIDE] | 4 | Less-Dili-Concern
CNNCc1ccc(C(=O)NC(C)C)cc1 [PROCARBAZINE] | 3 | Less-Dili-Concern
CN1CCN(CCCN2c3ccccc3Sc3ccc(Cl)cc32)CC1 [PROCHLORPERAZINE] | 2 | Less-Dili-Concern
OC(CCN1CCCC1)(c1ccccc1)C1CCCCC1 (stereo not given) [PROCYCLIDINE] | 0 | No-Dili-Concern
CC(=O)[C@H]1CC[C@H]2[C@@H]3CCC4=CC(=O)CC[C@]4(C)[C@H]3CC[C@]12C [PROGESTERONE] | 2 | Less-Dili-Concern
CC(CN1c2ccccc2Sc2ccccc21)N(C)C (stereo not given) [PROMETHAZINE] | 5 | Less-Dili-Concern
CCCNCC(O)COc1ccccc1C(=O)CCc1ccccc1 (stereo not given) [PROPAFENONE] | 3 | Less-Dili-Concern
CC(C)[N+](C)(CCOC(=O)C1c2ccccc2Oc2ccccc21)C(C)C [PROPANTHELINE] | 0 | No-Dili-Concern
CC(C)c1cccc(C(C)C)c1O [PROPOFOL] | 3 | Less-Dili-Concern
CCC(=O)O[C@](Cc1ccccc1)(c1ccccc1)[C@H](C)CN(C)C [PROPOXYPHENE] | 3 | Less-Dili-Concern
CC(C)NCC(O)COc1cccc2ccccc12 (stereo not given) [PROPRANOLOL] | 3 | Ambiguous-Dili-Concern
CCCc1cc(=O)[nH]c(=S)[nH]1 [PROPYLTHIOURACIL] | 8 | Most-Dili-Concern

Compound | DILI_severity_class [1] | DILI_Concern [2]
NC(=O)[C@@H]1CCCN1C(=O)[C@H](Cc1cnc[nH]1)NC(=O)[C@@H]1CCC(=O)N1 [PROTIRELIN] | 0 | No-Dili-Concern
CNCCCC1c2ccccc2C=Cc2ccccc21 [PROTRIPTYLINE] | 0 | No-Dili-Concern
CN[C@@H](C)[C@@H](O)c1ccccc1 [PSEUDOEPHEDRINE] | 0 | No-Dili-Concern
NC(=O)c1cnccn1 [PYRAZINAMIDE] | 3 | Less-Dili-Concern
CN(C)C(=O)Oc1ccc[n+](C)c1 [PYRIDOSTIGMINE] | 0 | No-Dili-Concern
Cc1ncc(CO)c(CO)c1O [PYRIDOXINE] | 0 | No-Dili-Concern
CCc1nc(N)nc(N)c1-c1ccc(Cl)cc1 [PYRIMETHAMINE] | 3 | Less-Dili-Concern
Fc1ccccc1C1=NCC(=S)N(CC(F)(F)F)c2ccc(Cl)cc21 [QUAZEPAM] | 0 | No-Dili-Concern
OCCOCCN1CCN(C2=Nc3ccccc3Sc3ccccc32)CC1 [QUETIAPINE] | 3 | Less-Dili-Concern
C=C[C@H]1C[N@@]2CC[C@H]1C[C@@H]2[C@@H](O)c1ccnc2ccc(OC)cc12 [QUINIDINE] | 3 | Less-Dili-Concern
C=C[C@H]1C[N@@]2CC[C@H]1C[C@H]2[C@H](O)c1ccnc2ccc(OC)cc12 [QUININE] | 3 | Less-Dili-Concern
COCCCOc1ccnc(C[S+]([O-])c2nc3ccccc3[nH]2)c1C (stereo not given) [RABEPRAZOLE] | 3 | Less-Dili-Concern
O=C(c1ccc(OCCN2CCCCC2)cc1)c1c(-c2ccc(O)cc2)sc2cc(O)ccc12 [RALOXIFENE] | 0 | No-Dili-Concern
CCC(=O)NCC[C@@H]1CCc2ccc3c(c21)CCO3 [RAMELTEON] | 0 | No-Dili-Concern
CNC(=C[N+](=O)[O-])NCCSCc1ccc(CN(C)C)o1 [RANITIDINE] | 5 | Less-Dili-Concern
COc1ccccc1OCC(O)CN1CCN(CC(=O)Nc2c(C)cccc2C)CC1 (stereo not given) [RANOLAZINE] | 0 | No-Dili-Concern
C#CCN[C@@H]1CCc2ccccc21 [RASAGILINE] | 3 | Ambiguous-Dili-Concern
CNC(=O)c1cnn(-c2nc(N)c3ncn([C@@H]4O[C@H](CO)[C@@H](O)[C@H]4O)c3n2)c1 [REGADENOSON ANHYDROUS] | 0 | No-Dili-Concern
CCOc1cc(CC(=O)N[C@@H](CC(C)C)c2ccccc2N2CCCCC2)ccc1C(=O)O [REPAGLINIDE] | 5 | Less-Dili-Concern
COC(=O)[C@H]1[C@H]2C[C@@H]3c4[nH]c5cc(OC)ccc5c4CCN3C[C@H]2C[C@@H](OC(=O)c2cc(OC)c(OC)c(OC)c2)[C@@H]1OC [RESERPINE] | 0 | No-Dili-Concern

Compound | DILI_severity_class [1] | DILI_Concern [2]
CC1=C(/C=C/C(C)=C/C=C/C(C)=C/CO)C(C)(C)CCC1 [RETINOL] | 3 | Less-Dili-Concern
NC(=O)c1ncn([C@@H]2O[C@H](CO)[C@@H](O)[C@H]2O)n1 [RIBAVIRIN] | 7 | Ambiguous-Dili-Concern
Cc1cc2nc3c(=O)[nH]c(=O)nc-3n(C[C@H](O)[C@H](O)[C@H](O)CO)c2cc1C [RIBOFLAVIN] | 0 | No-Dili-Concern
CO[C@H]1/C=C/O[C@@]2(C)Oc3c(C)c(O)c4c(c3C2=O)C2=NC3(CCN(CC(C)C)CC3)NC2=C(NC(=O)/C(C)=C\C=C\[C@H](C)[C@H](O)[C@@H](C)[C@@H](O)[C@@H](C)[C@H](OC(C)=O)[C@@H]1C)C4=O [RIFABUTIN] | 5 | Less-Dili-Concern
CO[C@H]1/C=C/O[C@@]2(C)Oc3c(C)c(O)c4c(O)c(c(/C=N/N5CCN(C)CC5)c(O)c4c3C2=O)NC(=O)/C(C)=C\C=C\[C@H](C)[C@H](O)[C@@H](C)[C@@H](O)[C@@H](C)[C@H](OC(C)=O)[C@@H]1C [RIFAMPIN] | 8 | Most-Dili-Concern
CO[C@H]1/C=C/O[C@@]2(C)Oc3c(C)c(O)c4c(O)c(c(/C=N/N5CCN(C6CCCC6)CC5)c(O)c4c3C2=O)NC(=O)/C(C)=C\C=C\[C@H](C)[C@H](O)[C@@H](C)[C@@H](O)[C@@H](C)[C@H](OC(C)=O)[C@@H]1C [RIFAPENTINE] | 4 | Ambiguous-Dili-Concern
CO[C@H]1/C=C/O[C@@]2(C)Oc3c(C)c(O)c4c(O)c(c5c(nc6cc(C)ccn65)c4c3C2=O)NC(=O)/C(C)=C\C=C\[C@H](C)[C@H](O)[C@@H](C)[C@@H](O)[C@@H](C)[C@H](OC(C)=O)[C@@H]1C [RIFAXIMIN] | 7 | Ambiguous-Dili-Concern
Nc1nc2ccc(OC(F)(F)F)cc2s1 [RILUZOLE] | 8 | Most-Dili-Concern
CC(N)C12CC3CC(CC(C3)C1)C2 (stereo not given) [RIMANTADINE] | 0 | No-Dili-Concern
O=P(O)(O)C(O)(Cc1cccnc1)P(=O)(O)O [RISEDRONIC ACID] | 3 | Ambiguous-Dili-Concern
Cc1nc2n(c(=O)c1CCN1CCC(c3noc4cc(F)ccc34)CC1)CCCC2 [RISPERIDONE] | 3 | Less-Dili-Concern
CC(C)c1nc(CN(C)C(=O)N[C@H](C(=O)N[C@@H](Cc2ccccc2)C[C@H](O)[C@H](Cc2ccccc2)NC(=O)OCc2cncs2)C(C)C)cs1 [RITONAVIR] | 8 | Most-Dili-Concern
CCN(C)C(=O)Oc1cccc([C@H](C)N(C)C)c1 [RIVASTIGMINE] | 3 | Less-Dili-Concern
CN(C)CCc1c[nH]c2ccc(Cn3cncn3)cc12 [RIZATRIPTAN] | 0 | No-Dili-Concern
CCCN(CCC)CCc1cccc2c1CC(=O)N2 [ROPINIROLE] | 4 | Less-Dili-Concern
CN(CCOc1ccc(CC2SC(=O)NC2=O)cc1)c1ccccn1 (stereo not given) [ROSIGLITAZONE] | 3 | Less-Dili-Concern
CC(C)c1nc(N(C)S(C)(=O)=O)nc(-c2ccc(F)cc2)c1/C=C/[C@@H](O)C[C@@H](O)CC(=O)O [ROSUVASTATIN] | 3 | Less-Dili-Concern
[82Rb+].[Cl-] [RUBIDIUM CHLORIDE RB 82] | 0 | No-Dili-Concern
NC(=O)c1cn(Cc2c(F)cccc2F)nn1 [RUFINAMIDE] | 3 | Ambiguous-Dili-Concern
O=C(Oc1ccccc1C(=O)O)c1ccccc1O [SALSALATE] | 3 | Less-Dili-Concern
